The target in this assay is T1, CETP (Homo sapiens, UniProt P11597).
T1 construct: The donor lipoprotein obtained above was added to plasma of healthy subject; from tissue; host or cells: whole plasma of healthy subject
T1 sequence (P11597 18-493): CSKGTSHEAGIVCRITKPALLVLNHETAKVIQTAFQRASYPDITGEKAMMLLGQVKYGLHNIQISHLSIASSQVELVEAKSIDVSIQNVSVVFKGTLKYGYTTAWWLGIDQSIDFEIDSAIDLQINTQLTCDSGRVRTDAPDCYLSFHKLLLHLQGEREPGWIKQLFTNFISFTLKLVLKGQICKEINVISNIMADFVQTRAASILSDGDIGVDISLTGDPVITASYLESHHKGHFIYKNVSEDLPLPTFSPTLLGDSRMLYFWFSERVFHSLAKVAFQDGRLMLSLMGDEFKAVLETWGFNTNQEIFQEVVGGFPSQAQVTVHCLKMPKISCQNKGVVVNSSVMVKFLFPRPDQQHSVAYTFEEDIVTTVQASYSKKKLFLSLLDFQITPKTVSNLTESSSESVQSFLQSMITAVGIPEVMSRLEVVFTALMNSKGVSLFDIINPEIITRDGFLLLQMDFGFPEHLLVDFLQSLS
As to the kind of experiment: Inhibitory effect in vitro on CETP activity in total plasma. It is filed as biochemical. The note with it: plasma of healthy subject with [3H]CE-HDL3, 37° C., 4 hr; average values. In outline:
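Healthy-donor plasma spiked with [3H]cholesteryl ester-labelled HDL3 (1,000 dpm/μL) was incubated with compound (DMF vehicle) for 4 hr at 37 °C or 4 °C. HDL was separated by MgCl2/dextran sulfate precipitation and supernatant radioactivity counted. IC50 is the concentration giving 50% inhibition of CETP activity.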

Structures can show the parent of a compound that is named as a salt.

The compound `CCN(CCC(C)(C)CC(=O)O)c1ccc(C(F)(F)F)cc1CN(Cc1cc(C(F)(F)F)cc(C(F)(F)F)c1)c1nnn(C)n1` [Example 105, 5-[N-(2-{[N′-[3,5-bis(trifluoromethyl)benzyl]-N′-(2-methyl-2H-tetrazol-5-yl)amino]methyl}-4-trifluoromethylphenyl)-N-ethylamino]-3,3-dimethylpentanoic acid hydrochloride] yielded an IC50 of 600 nM.
Then `CCN(C[C@H]1CC[C@H](CC(=O)O)CC1)c1cc2c(cc1CN(Cc1cc(C(F)(F)F)cc(C(F)(F)F)c1)c1nnn(C)n1)CCC2` [Example 111, trans-(4-{[N-(6-{[N′-[3,5-bis(trifluoromethyl)benzyl]-N′-(2-methyl-2H-tetrazol-5-yl)amino]methyl}indan-5-yl)-N-ethylamino]methyl}cyclohexyl)acetic acid hydrochloride], with 190 nM.
Then `CCN(CC(C)(C)CCC(=O)O)c1cc2c(cc1CN(Cc1cc(C(F)(F)F)cc(C(F)(F)F)c1)c1nnn(C)n1)CCC2` [Example 114, 5-[N-(6-{[N′-[3,5-bis(trifluoromethyl)benzyl]-N′-(2-methyl-2H-tetrazol-5-yl)amino]methyl}indan-5-yl)-N-ethylamino]-4,4-dimethylpentanoic acid hydrochloride], with 280 nM; and `CCN(C[C@H]1CC[C@H](CO)CC1)c1ccc(OC(F)(F)F)cc1CN(Cc1cc(C(F)(F)F)cc(C(F)(F)F)c1)c1nnn(C)n1` [Example 119, trans-(4-{[N-(2-{[N′-[3,5-bis(trifluoromethyl)benzyl]-N′-(2-methyl-2H-tetrazol-5-yl)amino]methyl}-4-trifluoromethoxyphenyl)-N-ethylamino]methyl}cyclohexyl)methanol hydrochloride], with 130 nM.
Then `CCN(CC(C)(C)CCCC(=O)O)c1cc2c(cc1CN(Cc1cc(C(F)(F)F)cc(C(F)(F)F)c1)c1nnn(C)n1)CCC2` [Example 120, 6-[N-(6-{[N′-[3,5-bis(trifluoromethyl)benzyl]-N′-(2-methyl-2H-tetrazol-5-yl)amino]methyl}indan-5-yl)-N-ethylamino]-5,5-dimethylhexanoic acid hydrochloride], with 280 nM.
As for `CCCN(C[C@H]1CC[C@H](C(=O)O)CC1)c1ccc(OC(F)(F)F)cc1CN(Cc1cc(C(F)(F)F)cc(C(F)(F)F)c1)c1nnn(C)n1` [Example 121, trans-4-{[N-(2-{[N′-[3,5-bis(trifluoromethyl)benzyl]-N′-(2-methyl-2H-tetrazol-5-yl)amino]methyl}-4-trifluoromethoxyphenyl)-N-propylamino]methyl}cyclohexanecarboxylic acid hydrochloride], the IC50 was found to be 230 nM.
Then `CC(C)CN(C[C@H]1CC[C@H](C(=O)O)CC1)c1ccc(OC(F)(F)F)cc1CN(Cc1cc(C(F)(F)F)cc(C(F)(F)F)c1)c1nnn(C)n1` [Example 122, trans-4-{[N-(2-{[N′-[3,5-bis(trifluoromethyl)benzyl]-N′-(2-methyl-2H-tetrazol-5-yl)amino]methyl}-4-trifluoromethoxyphenyl)-N-isobutylamino]methyl}cyclohexanecarboxylic acid hydrochloride], with 240 nM.
Then `CCN(C[C@H]1CC[C@H](C(=O)O)CC1)c1ccc(OC(F)(F)F)cc1CN(Cc1cc(C(F)(F)F)cc(C(F)(F)F)c1)c1ccc(C)cc1` [Example 127, trans-4-{[N-(2-{[N′-[3,5-bis(trifluoromethyl)benzyl]-N′-(p-tolyl)amino]methyl}-4-trifluoromethoxyphenyl)-N-ethylamino]methyl}cyclohexanecarboxylic acid hydrochloride], with 370 nM; and `CCN(C[C@H]1CC[C@H](C(=O)O)CC1)c1ccc(OC(F)(F)F)cc1CN(Cc1cc(Cl)cc(Cl)c1)c1nnn(C)n1` [Example 129, trans-4-{[N-(2-{[N′-(3,5-dichlorobenzyl)-N′-(2-methyl-2H-tetrazol-5-yl)amino]methyl}-4-trifluoromethoxyphenyl)-N-ethylamino]methyl}cyclohexanecarboxylic acid hydrochloride], with 610 nM; and `CCN(C[C@H]1CC[C@H](C(=O)O)CC1)c1ccc(OC(F)(F)F)cc1CN(Cc1cc(Cl)cc(C(F)(F)F)c1)c1nnn(C)n1` [Example 131, trans-4-{[N-(2-{[N′-(3-chloro-5-trifluoromethylbenzyl)-N′-(2-methyl-2H-tetrazol-5-yl)amino]methyl}-4-trifluoromethoxyphenyl)-N-ethylamino]methyl}cyclohexanecarboxylic acid hydrochloride], with 170 nM.
Then `CCN(C[C@H]1CC[C@H](CCC(=O)O)CC1)c1ccc(OC(F)(F)F)cc1CN(Cc1cc(C(F)(F)F)cc(C(F)(F)F)c1)c1nnn(C)n1` [Example 135, trans-3-(4-{[N-(2-{[N′-[3,5-bis(trifluoromethyl)benzyl]-N′-(2-methyl-2H-tetrazol-5-yl)amino]methyl}-4-trifluoromethoxyphenyl)-N-ethylamino]methyl}cyclohexyl)propionic acid hydrochloride], with 220 nM; and `CCN(C[C@H]1CC[C@H](CC(=O)O)CC1)c1cc2c(cc1CN(Cc1cc(C(F)(F)F)cc(C(F)(F)F)c1)c1nnn(C)n1)OC(F)(F)C(F)(F)O2` [Example 137, trans-(4-{[N-(7-{[N′-[3,5-bis(trifluoromethyl)benzyl]-N′-(2-methyl-2H-tetrazol-5-yl)amino]methyl}-2,2,3,3-tetrafluoro-2,3-dihydrobenzo[1,4]dioxin-6-yl)-N-ethylamino]methyl}cyclohexyl)acetic acid hydrochloride], with 140 nM; and `CCN(C[C@H]1CC[C@H](CC(N)=O)CC1)c1cc2c(cc1CN(Cc1cc(C(F)(F)F)cc(C(F)(F)F)c1)c1nnn(C)n1)OC(F)(F)C(F)(F)O2` [Example 138, trans-2-(4-{[N-(7-{[N′-[3,5-bis(trifluoromethyl)benzyl]-N′-(2-methyl-2H-tetrazol-5-yl)amino]methyl}-2,2,3,3-tetrafluoro-2,3-dihydrobenzo[1,4]dioxin-6-yl)-N-ethylamino]methyl}cyclohexyl)acetamide hydrochloride], with 160 nM.
`CCN(C[C@H]1CC[C@H](CCO)CC1)c1ccc(OC(F)(F)F)cc1CN(Cc1cc(C(F)(F)F)cc(C(F)(F)F)c1)c1nnn(C)n1` [Example 140, trans-2-(4-{[N-(2-{[N′-[3,5-bis(trifluoromethyl)benzyl]-N′-(2-methyl-2H-tetrazol-5-yl)amino]methyl}-4-trifluoromethoxyphenyl)-N-ethylamino]methyl}cyclohexyl)ethanol hydrochloride] came in with an IC50 of 120 nM.
Then `CCN(C[C@H]1CC[C@H](CO)CC1)c1cc(C(F)(F)F)c(C)cc1CN(Cc1cc(C(F)(F)F)cc(C(F)(F)F)c1)c1nnn(C)n1` [Example 141, trans-(4-{[N-(2-{[N′-[3,5-bis(trifluoromethyl)benzyl]-N′-(2-methyl-2H-tetrazol-5-yl)amino]methyl}-4-methyl-5-trifluoromethylphenyl)-N-ethylamino]methyl}cyclohexyl)methanol hydrochloride], with 120 nM; and “trans-4-{[N-(6-{[N′-(3-cyano-5-trifluoromethylbenzyl)-N′-(3-methylisoxazol-5-yl)amino]methyl}indan-5-yl)-N-ethylamino]methyl}cyclohexanecarboxylic acid hydrochloride [Example 54]”, with 790 nM.

(Values after patent publication US7807701B2, “Dibenzylamine compounds and pharmaceutical use thereof” (Japan Tobacco Inc., priority 2002, dated 2010).)
